pKd: −log10 of the molar value.
Experiments:
[1] = molecular target: T1, SHP2 in NCI‐H2122 cells (Homo sapiens, UniProt Q06124); test: Intracellular SHP2 activity (IP and DiFMUP); type: cell-based
T1 construct: endogenous in cells; host or cells: NCI-H2122
Protocol: To test intracellular SHP2 activity, the extract of NCI‐H2122 cells was precleared with protein A/G agarose beads and incubated with anti‐SHP2 antibody overnight at 4 °C, followed by further incubation with protein A/G agarose beads for 2 h at 4 °C. The Iimmunoprecipitates were suspended in sample buffer and detected in 96‐well black polystyrene plates using the fluorescent substrate DiFMUP under the same conditions as described above.

[2] = tested on: MIG‐6 and SPRY2 in NCI‐H2122 cells; test: MIG-6 and SPRY2 protein expression (western blotting); type: cell-based, human; conditions: 24 h
Protocol: Transwell, and the subsequent experiments were performed as described in Cell migration […]
After given treatment, cells were lysed by ice bath with radio-immunoprecipitation assay (RIPA) buffer containing 1% phenylmethylsulphonyl fluoride (PMSF), and the supernatant was collected by centrifugation, and the protein concentration was subsequently determined using a BCA Protein Assay Kit. Depending on the molecular weight of the proteins, different concentrations of sodium dodecyl-sulfate polyacrylamide gel electrophoresis (SDS-PAGE) separator gels were prepared for protein electrophoresis. Equal amounts of proteins were sampled and subjected to SDS-PAGE gel electrophoresis; at the end of electrophoresis, the proteins were transferred to nitrocellulose (NC) membranes. The NC membrane was blocked with 5% skim milk and covered with a specific primary antibody overnight at 4 °C, in which the primary antibody was diluted at a ratio of 1:500–1:5000. The NC membrane was […]

[3] = molecular target: T2, His‐SHP2 (full‐length) (Homo sapiens, UniProt Q06124); test: Full-length SHP2 activity activated by bis-phosphorylated Gab1 peptide; type: biochemical
T2 construct: His; made in house; host or cells: E. coli
Protocol: For detection of SHP2 allosteric regulation by the compounds, the soluble fusion His‐SHP2 protein was cloned, expressed, and purified by constructing a pET28a‐PTPN11 recombinant plasmid in E. coli. Subsequently, 148 nM His‐SHP2 protein with 14.8 µM peptide (bis‐phosphorylated peptide from Gab1, with the sequence of: H2N‐VE(pY)LDLDLD(PEG8)RVD‐(pY)VVVDQQ‐amide) was mixed thoroughly in reaction buffer and incubated for 30 min at 37 °C in the dark. The fluorescence intensity was detected by DiFMUP after addition of different drugs and incubation at 37 °C for 30 min, with SHP099 and Na3VO4 as positive controls and unactivated protein as negative controls.

[4] = molecular target: T3, His‐ΔSHP2^K325A (Homo sapiens, UniProt Q06124, K325A); test: Isothermal titration calorimetry; type: binding; conditions: read-out: KD value (ITC)
T3 construct: His‐ΔSHP2, encompassing the peptide from amino acids 205–593 retaining PTP activity; His; made in house; host or cells: E. coli BL21
Protocol: The purified His‐ΔSHP2, His‐SHP2, or His‐ΔSHP2^K325A proteins were dialyzed overnight in dialysis buffer (20 mM HEPES, 0.15 M NaCl, 1 mM TCEP, 10% glycerol, pH 7.5). The protein concentration was determined using the BCA Protein Assay Kit, and the purity of the proteins was detected by Coomassie Brilliant Blue staining. ITC experiments were performed when the protein concentration was higher than 2 mg mL^−1 and the purity was greater than 90%. The instrument (Malvern Instruments, USA) was considered to be functioning optimally for compound and protein titration experiments when the DP value was < 0.05 µcal s^−1 by the water droplet experiment. After the sample cell was cleaned twice with protein dialysis buffer, a protein sample (300 µL) was loaded to the sample cell, an equal amount of ultrapure water was added to the reference cell, and the compound solution dissolved with the same dialysis buffer was put into the corresponding cell, in which the protein‐compound molar ratio was 1:10–1:20. The parameters were adjusted based on the curve‐fitting results to determine the optimal binding concentration gradient. Based on the exothermic changes in the reaction, the entropy increase and enthalpy change were analyzed using software fitting to obtain parameters such as the binding coefficient and affinity constant between the small molecules and proteins. […]

[5] = tested on: A549 and NCI‐H2122 cells; test: Compound removal from culture media (western blotting); type: cell-based, human
Source text: Due to the poor membrane permeability of SHP2 catalytic inhibitors,^[ [18], [30] ^] we examined the effect of embelin on SHP2 expression and phosphorylation after removing the compound from the culture media of A549 and NCI‐H2122 cells.

[6] = molecular target: T4, His‐ΔSHP2 (Homo sapiens, UniProt Q06124); test: Isothermal titration calorimetry; type: binding; conditions: read-out: KD value (ITC)
T4 construct: His‐ΔSHP2, encompassing the peptide from amino acids 205–593 retaining PTP activity; His; made in house; host or cells: E. coli
T4 sequence (Q06124 205-593): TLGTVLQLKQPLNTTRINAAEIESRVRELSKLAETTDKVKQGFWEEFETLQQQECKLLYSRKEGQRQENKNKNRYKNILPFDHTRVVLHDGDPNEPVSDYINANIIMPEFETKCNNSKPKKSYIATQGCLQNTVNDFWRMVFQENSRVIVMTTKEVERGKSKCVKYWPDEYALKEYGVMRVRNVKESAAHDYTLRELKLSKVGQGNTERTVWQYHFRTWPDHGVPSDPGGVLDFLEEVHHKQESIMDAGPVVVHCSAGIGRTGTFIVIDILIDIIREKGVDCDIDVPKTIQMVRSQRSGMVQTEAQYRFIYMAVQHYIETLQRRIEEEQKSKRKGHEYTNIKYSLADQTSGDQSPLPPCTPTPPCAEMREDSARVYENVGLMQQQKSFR
Protocol: (§1) The purified His‐ΔSHP2, His‐SHP2, or His‐ΔSHP2^K325A proteins were dialyzed overnight in dialysis buffer (20 mM HEPES, 0.15 M NaCl, 1 mM TCEP, 10% glycerol, pH 7.5). The protein concentration was determined using the BCA Protein Assay Kit, and the purity of the proteins was detected by Coomassie Brilliant Blue staining. ITC experiments were performed when the protein concentration was higher than 2 mg mL^−1 and the purity was greater than 90%. The instrument (Malvern Instruments, USA) was considered to be functioning optimally for compound and protein titration experiments when the DP value was < 0.05 µcal s^−1 by the water droplet experiment. After the sample cell was cleaned twice with protein dialysis buffer, a protein sample (300 µL) was loaded to the sample cell, an equal amount of ultrapure water was added to the reference cell, and the compound solution dissolved with the same dialysis buffer was put into the corresponding cell, in which the protein‐compound molar ratio was 1:10–1:20. The parameters were adjusted based on the curve‐fitting results to determine the optimal binding concentration gradient. Based on the exothermic changes in the reaction, the entropy increase and enthalpy change were analyzed using software fitting to obtain parameters such as the binding coefficient and affinity constant between the small molecules and proteins.

[7] = molecular target: T5, His‐SHP2 (Homo sapiens, UniProt Q06124); test: Isothermal titration calorimetry; type: binding; conditions: read-out: KD value (ITC)
T5 construct: His; made in house; host or cells: E. coli
Protocol: as §1

[8] = molecular target: T6, XIAP (Homo sapiens, UniProt P98170); test: Cellular thermal shift assay (CETSA); type: binding; conditions: 56 and 62 ℃
T6 construct: endogenous in cells; host or cells: NCI-H2122
Protocol: NCI‐H2122 cells were harvested and resuspended with pre‐cooled PBS containing 1% cocktail, which was then frozen in liquid nitrogen for 5 min and thawed in a water bath at 37 °C for 5 min for three repetitions. The supernatant was collected via centrifugation at 4 °C (15 000 × g, 20 min), divided into two equal portions; one was added with test drugs or various concentrations of embelin, and the other was added with DMSO as control and subsequently incubated at 25 °C for 30 min. All samples were heated at temperatures ranging from 52–70 °C for 3 min, and subsequently in an ice bath for 3 min and collected by centrifugation at 4 °C (15 000 × g, 20 min), and added with protein sampling buffer at 100 °C for 5 min, followed by analysis of protein stability using western blotting.

T6 sequence (P98170 whole entry): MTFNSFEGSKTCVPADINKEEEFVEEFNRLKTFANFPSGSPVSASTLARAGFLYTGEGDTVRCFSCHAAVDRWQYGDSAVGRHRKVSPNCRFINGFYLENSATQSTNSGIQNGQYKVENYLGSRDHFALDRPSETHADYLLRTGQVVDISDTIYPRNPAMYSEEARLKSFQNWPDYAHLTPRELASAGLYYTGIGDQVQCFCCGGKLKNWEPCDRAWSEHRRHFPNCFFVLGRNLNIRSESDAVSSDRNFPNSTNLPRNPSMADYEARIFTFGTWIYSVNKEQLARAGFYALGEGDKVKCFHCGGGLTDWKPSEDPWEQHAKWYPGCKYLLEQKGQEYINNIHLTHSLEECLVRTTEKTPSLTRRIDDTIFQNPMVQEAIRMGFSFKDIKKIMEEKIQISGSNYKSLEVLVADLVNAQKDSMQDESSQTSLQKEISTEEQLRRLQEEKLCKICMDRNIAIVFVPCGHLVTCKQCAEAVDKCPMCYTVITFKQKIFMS
T3 sequence (Q06124 205-593 K325A): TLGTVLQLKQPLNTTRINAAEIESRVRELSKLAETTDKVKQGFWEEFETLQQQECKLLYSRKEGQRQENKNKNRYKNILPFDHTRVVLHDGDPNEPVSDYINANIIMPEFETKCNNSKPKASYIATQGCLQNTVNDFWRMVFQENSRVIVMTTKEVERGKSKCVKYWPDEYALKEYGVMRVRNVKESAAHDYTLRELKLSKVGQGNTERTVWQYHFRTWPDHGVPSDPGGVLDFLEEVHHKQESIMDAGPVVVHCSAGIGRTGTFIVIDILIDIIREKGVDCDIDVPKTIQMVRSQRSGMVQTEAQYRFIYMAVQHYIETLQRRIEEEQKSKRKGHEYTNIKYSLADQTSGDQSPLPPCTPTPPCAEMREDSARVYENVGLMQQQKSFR

effect on intracellular SHP2 activity [1]	effect on SHP2 full‐length activity allosterically activated by bis‐phosphorylated Gab1 peptide [3]	pKd [4]	membrane permeability (inferred from removal after 6 h vs continuous 24 h treatment) [5]	pKd [6]	pKd [7]	Structure (SMILES)	expression of MIG‐6 and SPRY2 [2]	effect on XIAP protein stability (CETSA) [8]
significantly inhibited	no effect	6.46	strong membrane permeability	6.66	7.64	CCCCCCCCCCCC1=C(O)C(=O)C=C(O)C1=O [Embelin]	significantly promoted the expression	–
–	–	–	–	–	–	CC1(N)CCN(c2cnc(-c3cccc(Cl)c3Cl)c(N)n2)CC1 [SHP099]	–	did not affect XIAP protein stability

From paper PMC12005787, “Synthetic Lethality of SHP2 and XIAP Suppresses Proliferation and Metastasis in KRAS‐mutant Nonsmall Cell Lung Cancer” (Advanced Science, 2025)
